Results as given in ChEMBL document CHEMBL3784978, “Stabilization of G-quadruplex DNA and inhibition of Bcl-2 expression by a pyridostatin analog” (Bioorg Med Chem Lett, 2016).
Activity calls are given as the source filed them. The calls are words filed in the database; no cut-off is given here.

Tests used:
[1] = Ratio of binding affinity to Bcl2 G-quadruplex DNA (unknown origin) to binding affinity to duplex ds26 DNA (unknown origin)
[2] = Binding affinity to Bcl2 G-quadraplex DNA (unknown origin) assessed as binding constant at 8 uM by Stern-Volmer plot analysis in the presence of KCl and NaCl
[3] = Ratio of binding affinity to Bcl2 G-quadruplex DNA (unknown origin) to binding affinity to duplex ds20 DNA (unknown origin)
[4] = Binding affinity to duplex ds26 DNA (unknown origin) assessed as binding constant at 8 uM by Stern-Volmer plot analysis in the presence of KCl and NaCl
[5] = Binding affinity to duplex ds20 DNA (unknown origin) assessed as binding constant at 8 uM by Stern-Volmer plot analysis in the presence of KCl and NaCl
HEp-2 [6] = test: Binding affinity to Bcl2 G-quadraplex DNA in human Hep2 cells assessed as reduction in Bcl-2 expression co-transfected in pRL-TK plasmid vector after 48 hrs by dual-luciferase reporter assay; type: cell-based
HEp-2 [7] = test: Binding affinity to Bcl2 G-quadraplex DNA in human Hep2 cells assessed as reduction in Bcl-2 gene levels by real-time PCR method; type: cell-based
[8] = Binding affinity to Bcl2 G-quadraplex DNA (unknown origin) assessed as melting temprature at 5 uM by circular dichroism spectroscopic analysis in the presence of KCl and NaCl
HEp-2 [9] = test: Antiproliferative activity against human Hep2 cells measured up to 10 uM after 48 hrs by MTT assay; type: functional, cell-based
Homo sapiens = species: Homo sapiens; test: Binding affinity to duplex ds26 DNA (unknown origin) assessed as melting temprature at 12 uM by circular dichroism spectroscopic analysis in the presence of KCl and NaCl
[10] = Binding affinity to Bcl2 G-quadraplex DNA (unknown origin) assessed as melting temprature at 2 uM by circular dichroism spectroscopic analysis in the presence of KCl and NaCl

SMILES	Ratio [1]	Ka [2] [×10⁵ L/mol]	Ratio [3]	Ka [4] [×10⁵ L/mol]	Ka [5] [×10⁵ L/mol]	Activity (HEp-2 [6])	Activity (HEp-2 [7])	Tm [8] [°C]	Activity (HEp-2 [9])	Tm (Homo sapiens) [°C]	Tm [10] [°C]
NCCOc1cc(C(=O)Nc2cc(OCCN)c3ccccc3n2)nc(C(=O)Nc2cc(OCCN)c3ccccc3n2)c1	4	6.97	4	1.52	1.36	–	–	–	–	–	–
CN(C)CCOc1cc(NC(=O)c2cc(OCCN)cc(C(=O)Nc3cc(OCCN(C)C)c4ccccc4n3)n2)nc2ccccc12	6.5	4.29	6.5	0.66	0.28	Dose-dependent effect	Active	71	Active	68	56
